Consider 11 molecules from patent publication US20240294551A1 (AMGEN INC., priority 2022, published 2024).

Assay [1] concerns the target His-tagged KRAS G12D protein (Homo sapiens (Human), UniProt P01116, G12D). The assay is described as follows: KRAS G12D TR-FRET Assay. The format is binding. The settings on record: read-out: KRAS G12D Binding IC50. Summed up: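 Each incubation ran at room temperature: enzyme with compound for 30 minutes, peptide for one hour, and detection reagents (0.4 nM europium anti-6×His, 5 nM streptavidin-d2) for one hour more. Protein and peptide stocks were each diluted to 20 nM before addition.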

The target of assay [2] is GDP-bound KRAS protein (aa 1-169), containing both G12D and C118A amino acid substitutions (Homo sapiens (Human), UniProt P01116, C118A/G12D). Put plainly: KRAS G12D Coupled Nucleotide Exchange Assay. The format is biochemical. Particulars: read-out: KRAS G12D Coupled Exchange IC50.
Sequence of GDP-bound KRAS protein (aa 1-169), containing both G12D and C118A amino acid substitutions (P01116 other isoform, or with tags, fused parts or gaps G12D/C118A): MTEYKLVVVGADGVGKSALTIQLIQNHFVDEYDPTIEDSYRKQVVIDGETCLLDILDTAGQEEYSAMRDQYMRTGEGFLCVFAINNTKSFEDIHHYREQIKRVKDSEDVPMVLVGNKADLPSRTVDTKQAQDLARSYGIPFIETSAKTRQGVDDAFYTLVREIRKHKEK
The test system of assay [3] is Phosphorylation of ERK1/2 in AsPC-1 cells. Put plainly: Phospho-ERK1/2 MSD Assay. The format is cell-based, human. Particulars: Homo sapiens, ASPC1, 2 h, read-out: 2 h p-ERK (AsPC-1 cells), IC50. In short, it runs like this:
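Read-out: MSD electrochemiluminescent detection of phosphorylated ERK1/2 in whole-cell lysates, fitted to a 4-parameter logistic curve for IC50. Prior to lysis, AsPC-1 cells (25,000 per well) received a 2 h compound dose-response at 37 °C.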

Assay [4] has as its system AsPC-1 cells. Put plainly: AsPC-1 CTG Assay (CellTiter-Glo cell viability). The settings on record: Homo sapiens, ASPC1, 72 h, AsPC-1, 72 h; first value of the cell; read-out: G12D/C/V Cell Proliferation CTG (72 h) AsPC-1. The format is cell-based, human. Summed up:
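IC50 values derive from 4-parameter logistic fits of CellTiter-Glo luminescence, expressed relative to DMSO. Compound dilution series were applied to overnight-seeded AsPC-1 or SW620 cells (RPMI 1640, 10% FBS) for 72 h at 37 °C, 5% CO2.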
Background: ATP-based viability assays read luminescence as a measure of living cells.

For assay [5], the system named is SW620 cells. Put plainly: SW620 CTG Assay (CellTiter-Glo cell viability). Particulars: Homo sapiens, SW-620; SW620, 72 h; third value of the cell; read-out: G12D/C/V Cell Proliferation CTG (72 h) SW620. The format is cell-based, human. On the procedure:
AsPC-1 and SW620 CTG Assay Protocols
AsPC-1 (human pancreatic adenocarcinoma; ATCC CRL-1682) or SW620 (human colon adenocarcinoma; ATCC CCL-227) cells were cultured in RPMI 1640 medium containing 10% fetal bovine serum and 1× penicillin/streptomycin/L-glutamine. Cells were seeded in 384-well plates at a density of 3.33E+04 cells/mL and incubated at 37° C., 5% CO2, overnight. Serially-diluted compound or DMSO was added to the cells, and plates were incubated at 37° C., 5% CO2 for 72 h. Cell viability was measured using a CellTiter-Glo® Luminescent Cell Viability Assay kit (Promega) according to the manufacturer's protocol. The luminescence signal of treated samples was normalized to DMSO control, and data were analyzed using a 4-parameter logistic model to calculate IC50 values.

For assay [6], the system named is MIA PaCa-2 cells. Put plainly: MIA PaCa-2 CTG Assay (CellTiter-Glo cell viability). Type of assay: cell-based, human. The settings on record: Homo sapiens; Mia PaCa-2, 72 h; second value of the cell; read-out: G12D/C/V Cell Proliferation CTG (72 h) Mia PaCa-2. Summed up:
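IC50 values come from a 4-parameter logistic fit of CellTiter-Glo luminescence, normalized to DMSO control, after 72 h compound exposure at 37° C, 5% CO2. Cells grew in RPMI 1640 plus 10% FBS and were seeded at 1.67E+04 cells/mL one night before dosing.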

Sequence of His-tagged KRAS G12D protein (P01116 other isoform, or with tags, fused parts or gaps G12D): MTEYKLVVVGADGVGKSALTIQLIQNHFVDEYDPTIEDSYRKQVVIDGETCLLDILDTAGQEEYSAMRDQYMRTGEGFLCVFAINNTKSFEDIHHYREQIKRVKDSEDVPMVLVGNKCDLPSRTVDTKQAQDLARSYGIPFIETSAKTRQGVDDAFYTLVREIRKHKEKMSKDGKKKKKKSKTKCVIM

On to `C[C@@]12CCCN(C1)c1nc(OC[C@@]34CCCN3C[C@H](F)C4)nc3c(F)c(ncc13)-c1cc(O)cc3ccc(F)c(c13)CCCC(=O)N2` [Example 4, (15R)-22,31-Difluoro-8-(((2R,7aS)-2-fluorotetrahydro-1H-pyrrolo[1,2-a]pyrrol-7a(5H)-yl)methoxy)-27-hydroxy-15-methyl-3,7,9,11,16-pentaazahexacyclo[19.7.1.1˜2,6˜.1˜11,15˜.0˜5,10˜.0˜25,29˜]hentriaconta-1(28),2(31),3,5,7,9,21,23,25(29),26-decaen-17-one bis(2,2,2-trifluoroacetate)], for which the IC50 in assay [1] is 4 nM; in assay [2], 2 nM; in assay [3], 3 nM; in assay [4], 14 nM; in assay [5], 7 nM; in assay [6], 5 nM.
In the case of `Cc1c2ncc3c(nc(OC[C@@]45CCCN4C[C@H](F)C5)nc13)N1CCC[C@](C)(C1)NC(=O)CCCc1c(F)ccc3cc(O)cc-2c13` [Example 18, (15R)-22-Fluoro-8-(((2R,7aS)-2-fluorotetrahydro-1H-pyrrolo[1,2-a]pyrrol-7a(5H)-yl)methoxy)-27-hydroxy-15,31-dimethyl-3,7,9,11,16-pentaazahexacyclo[19.7.1.1˜2,6˜.1˜11,15˜.0˜5,10˜.0˜25,29˜]hentriaconta-1(28),2(31),3,5,7,9,21,23,25(29),26-decaen-17-one], the IC50 in assay [1] worked out at 6 nM; in assay [2], 3 nM; in assay [3], 12 nM; in assay [4], 82 nM; in assay [5], 32 nM; in assay [6] it was 29 nM.
On to `Cc1cc2[nH]ncc2c2c1CCCCC(=O)O[C@@H]1CCCN(C1)c1nc(OC[C@@]34CCCN3C[C@H](F)C4)nc3c(F)c-2ncc13` [Example 31, (17R)-30-Fluoro-24-(((2R,7aS)-2-fluorotetrahydro-1H-pyrrolo[1,2-a]pyrrol-7a(5H)-yl)methoxy)-9-methyl-16-oxa-5,6,21,23,25,29-hexaazahexacyclo[24.3.1.1˜17,21.0˜2,10˜.0˜3,7˜.0˜22,27˜]hentriaconta-1(30),2,4,7,9,22,24,26,28-nonaen-15-one bis(2,2,2-trifluoroacetate)], for which the figures for the IC50 in assay [3], in assay [5] and in assay [6] were 33 nM, 133 nM and 170 nM, respectively.
Turning to `O=C1OC[C@@H]2C[C@@H]2c2c(Cl)cc3[nH]ncc3c2-c2ncc3c(nc(OC[C@@]45CCCN4C[C@H](F)C5)nc3c2F)N2CCC[C@H](C2)O1` [Example 45, (11S,13R,18R)-9-Chloro-31-fluoro-25-(((2R,7aS)-2-fluorotetrahydro-1H-pyrrolo[1,2-a]pyrrol-7a(5H)-yl)methoxy)-15,17-dioxa-5,6,22,24,26,30-hexaazaheptacyclo[25.3.1.1˜18,22˜.0˜2,10˜.0˜3,7˜.0˜11,13˜.0˜23,28˜]dotriaconta-1(31),2,4,7,9,23,25,27,29-nonaen-16-one bis(2,2,2-trifluoroacetate)], the IC50 was determined as 2 nM in assay [1]; 1 nM in assay [2]; 1 nM in assay [3]; 50 nM in assay [4]; 10 nM in assay [5]; 10 nM in assay [6].
Turning to `O=C1CCCCc2c(Cl)cc3[nH]ncc3c2-c2ncc3c(nc(OC[C@@]45CCCN4C[C@H](F)C5)nc3c2F)N2CCCC[C@H](C2)N1` [Example 65, (26R)-18-Chloro-32-fluoro-4-(((2R,7aS)-2-fluorotetrahydro-1H-pyrrolo[1,2-a]pyrrol-7a(5H)-yl)methoxy)-1,3,5,9,14,15,25-heptaazahexacyclo[24.4.1.1˜6,10˜.0˜2,7˜.0˜11,19˜.0˜12,16˜]dotriaconta-2,4,6,8,10(32),11,13,16,18-nonaen-24-one bis(2,2,2-trifluoroacetate)], the IC50 in assay [1] came out at 6 nM; in assay [2] it was 2 nM; in assay [3], 24 nM; in assay [4], 320 nM; in assay [5], 52 nM; in assay [6] it was 160 nM.
On to `Cc1cc2[nH]ncc2c2c1[C@H]1C[C@H]1COC(=O)O[C@@H]1CCCN(C1)c1nc(OC[C@@]34CCCN3C[C@H](F)C4)nc3c(F)c-2ncc13` [Example 110], for which the IC50 in assay [1] came to 3 nM; in assay [2] it was 2 nM; in assay [3], 4 nM; in assay [4] it was 80 nM; in assay [5], 10 nM; in assay [6], 20 nM.
As for `O=C1OCCCc2c(Cl)cc3[nH]ncc3c2-c2ncc3c(nc(OC[C@@]45CCCN4C[C@H](F)C5)nc3c2F)N2CCC[C@H](C2)O1` [Example 115], the IC50 was 3 nM in assay [1]; 1 nM in assay [2]; 10 nM in assay [3]; 60 nM in assay [4]; 27.4 nM in assay [5]; 60 nM in assay [6].
`CN(C)CC1(COc2nc3c4cnc(c(F)c4n2)-c2c(c(Cl)cc4[nH]ncc24)CCCOC(=O)O[C@@H]2COCCN3C2)CC1` [Example 195, (26S)-18-chloro-4-((1-((dimethylamino)methyl)cyclopropyl)methoxy)-32-fluoro-23,25,28-trioxa-1,3,5,9,14,15-hexaazahexacyclo[24.4.1.1~6,10~.0~2,7~.0~11,19~.0~12,16~]dotriaconta-2,4,6,8,10(32),11,13,16,18-nonaen-24-one]: the IC50 came to 6 nM in assay [3], 67 nM in assay [4], 50 nM in assay [5] and 31 nM in assay [6].
Take `O=C1OCCc2c(Cl)cc3[nH]ncc3c2-c2ncc3c(nc(OC[C@@]45CCCN4C[C@H](F)C5)nc3c2F)N2CCC[C@@H](CO1)C2` [Example 221]: the IC50 in assay [1] turned out to be 4 nM; in assay [2], 1 nM; in assay [3] it was 7.1 nM; in assay [4] it was 209 nM; in assay [5] it was 75 nM.
For the molecule `C[C@@]12CCCN(C1)c1nc(OC[C@@]34CCCN3C[C@H](F)C4)nc3c(F)c(ncc13)-c1c(c(Cl)cc3[nH]ncc13)CCCOC(=O)O2` [Example 327, (17R)-9-chloro-30-fluoro-24-(((2R,7aS)-2-fluorotetrahydro-1H-pyrrolo[1,2-a]pyrrol-7a(5H)-yl)methoxy)-17-methyl-14,16-dioxa-5,6,21,23,25,29-hexaazahexacyclo[24.3.1.1~17,21~.0~2,10~.0~3,7~.0~22,27~]hentriaconta-1(30),2,4,7,9,22,24,26,28-nonaen-15-one], the IC50 worked out at 4 nM in assay [1]; 2 nM in assay [2]; 8.4 nM in assay [3]; 13 nM in assay [4]; 24 nM in assay [5].
On to `O=C1OCCCc2c(Cl)cc3[nH]ncc3c2-c2ncc3c(nc(OC[C@@]45CCCN4C[C@H](F)C5)nc3c2F)N2CCC[C@](CF)(C2)O1` [Example 336, (17R)-9-chloro-30-fluoro-17-(fluoromethyl)-24-(((2R,7aS)-2-fluorotetrahydro-1H-pyrrolo[1,2-a]pyrrol-7a(5H)-yl)methoxy)-14,16-dioxa-5,6,21,23,25,29-hexaazahexacyclo[24.3.1.1~17,21~.0~2,10~.0~3,7~.0~22,27~]hentriaconta-1(30),2,4,7,9,22,24,26,28-nonaen-15-one], for which the IC50 was found to be 3 nM in assay [1]; 3 nM in assay [2]; 12 nM in assay [3]; 31 nM in assay [4]; 49 nM in assay [5].
